Test results as given in PubChem BioAssay AID330 (DTP/NCI, 2004).
Where “and” joins values, the source holds several entries; their conditions need not be identical. Equal entries are not always repeated. Inconclusive results and toxic doses are left out. The calls were made as follows: active = survival T/C of 150% or more; inactive = T/C below 125% in these data.

Tested on: P388 leukemia ip, CD2F1 mice, survival T/C
Assay: NCI In Vivo Anticancer Drug Screen. Data for tumor model P388 Leukemia (intraperitoneal) in CD2F1 (CDF1) mice
Conditions: endpoint: median survival time, higher = longer survival
Summary of the method: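 Mice carrying the transplanted tumor received test compound or vehicle. Survival was recorded in each group, and the value is the treated-group measurement divided by that of the vehicle-treated control group.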

[1] = dose: 50.0 mg/kg/injection, schedule: Q01DX005 (ip), vehicle: saline with Tween-80
[2] = dose: 100.0 mg/kg/injection, schedule: Q01DX005 (ip), vehicle: saline with Tween-80
[3] = dose: 200.0 mg/kg/injection, schedule: Q01DX005 (ip), vehicle: saline with Tween-80
[4] = dose: 100.0 mg/kg/injection, schedule: Q04DX003 (ip), vehicle: saline
[5] = dose: 50.0 mg/kg/injection, schedule: Q01DX009 (ip), vehicle: saline
[6] = dose: 100.0 mg/kg/injection, schedule: Q01DX009 (ip), vehicle: saline
[7] = dose: 60.0 mg/kg/injection, schedule: Q01DX005 (ip), vehicle: saline

Measured: T/C

CCC1OCC(C(Cl)CCl)O1 (stereo unspecified)
inactive: [1] 102 % of control | [2] 111 % of control | dose: 132.0 mg/kg/injection, schedule: Q01DX009 (ip), vehicle: saline with Tween-80 100 % of control | [3] 103 % of control | dose: 200.0 mg/kg/injection, schedule: Q01DX009 (ip), vehicle: saline with Tween-80 118 % of control | dose: 300.0 mg/kg/injection, schedule: Q01DX009 (ip), vehicle: saline with Tween-80 118 % of control

CN(C)C(=S)SSC(=S)N(C)C
inactive: dose: 12.5 mg/kg/injection, schedule: Q01DX009 (ip), vehicle: Klucel (hydroxypropylcellulose) (HPC) 119 % of control | dose: 25.0 mg/kg/injection, schedule: Q01DX009 (ip), vehicle: Klucel (hydroxypropylcellulose) (HPC) 115 % of control | dose: 50.0 mg/kg/injection, schedule: Q01DX009 (ip), vehicle: Klucel (hydroxypropylcellulose) (HPC) 101 % of control and 117 % of control | dose: 100.0 mg/kg/injection, schedule: Q01DX009 (ip), vehicle: Klucel (hydroxypropylcellulose) (HPC) 118 % of control and 90 % of control

CO[C@@H]1[C@H](O)CC[C@]2(CO2)[C@H]1[C@@]1(C)O[C@@H]1CC=C(C)C
inactive: dose: 3.13 mg/kg/injection, schedule: Q01DX009 (ip), vehicle: saline with Tween-80 99 % of control and 120 % of control | dose: 6.25 mg/kg/injection, schedule: Q01DX009 (ip), vehicle: saline with Tween-80 99 % of control and 116 % of control | dose: 12.5 mg/kg/injection, schedule: Q01DX009 (ip), vehicle: saline with Tween-80 99 % of control and 106 % of control | dose: 25.0 mg/kg/injection, schedule: Q01DX009 (ip), vehicle: saline with Tween-80 108 % of control and 120 % of control | dose: 33.3 mg/kg/injection, schedule: Q01DX009 (ip), vehicle: saline with Tween-80 99 % of control

COc1ccc(C)cc1C(CC(=O)O)CC(=O)N(CCCl)CCCl (stereo unspecified)
inactive: [4] 102 % of control | dose: 200.0 mg/kg/injection, schedule: Q04DX003 (ip), vehicle: saline 100 % of control | dose: 400.0 mg/kg/injection, schedule: Q04DX003 (ip), vehicle: saline 102 % of control

CC1=CC(C)(C)Nc2ccc(Cc3ccc4c(c3)C(C)=CC(C)(C)N4)cc21
inactive: dose: 60.0 mg/kg/injection, schedule: Q01DX005 (ip), vehicle: saline with Tween-80 101 % of control | dose: 120.0 mg/kg/injection, schedule: Q01DX005 (ip), vehicle: saline with Tween-80 94 % of control | dose: 240.0 mg/kg/injection, schedule: Q01DX005 (ip), vehicle: saline with Tween-80 95 % of control

CC(=O)O[C@H]1C(=O)[C@]2(C)[C@@H](OC(C)=O)CC3OC[C@@]3(OC(C)=O)[C@H]2[C@H](OC(=O)c2ccccc2)[C@]2(O)C[C@H](OC(=O)[C@H](OC(C)=O)[C@@H](NC(=O)c3ccccc3)c3ccccc3)C(C)=C1C2(C)C (stereo partly specified)
inactive: dose: 2.5 mg/kg/injection, schedule: Q01DX005 (ip), vehicle: DMSO 100 % of control | dose: 5.0 mg/kg/injection, schedule: Q01DX005 (ip), vehicle: DMSO 102 % of control and 118 % of control | dose: 10.0 mg/kg/injection, schedule: Q01DX005 (ip), vehicle: DMSO 102 % of control and 124 % of control | dose: 12.5 mg/kg/injection, schedule: Q01DX005 (ip), vehicle: DMSO 107 % of control | dose: 20.0 mg/kg/injection, schedule: Q01DX005 (ip), vehicle: DMSO 121 % of control | dose: 25.0 mg/kg/injection, schedule: Q01DX005 (ip), vehicle: DMSO 120 % of control | dose: 50.0 mg/kg/injection, schedule: Q01DX005 (ip), vehicle: DMSO 124 % of control | dose: 100.0 mg/kg/injection, schedule: Q01DX005 (ip), vehicle: DMSO 120 % of control
active: dose: 40.0 mg/kg/injection, schedule: Q01DX005 (ip), vehicle: DMSO 178 % of control

Cc1ccc(NC(=O)CCSC(=O)Nc2ccc(C)cc2)cc1
inactive: dose: 100.0 mg/kg/injection, schedule: Q04DX002 (ip), vehicle: Klucel (hydroxypropylcellulose) (HPC) 101 % of control | dose: 200.0 mg/kg/injection, schedule: Q04DX002 (ip), vehicle: Klucel (hydroxypropylcellulose) (HPC) 104 % of control | dose: 400.0 mg/kg/injection, schedule: Q04DX002 (ip), vehicle: Klucel (hydroxypropylcellulose) (HPC) 104 % of control

O/N=C/C(Cl)=N\O
inactive: dose: 100.0 mg/kg/injection, schedule: Q04DX002 (ip), vehicle: saline with Tween-80 91 % of control | dose: 200.0 mg/kg/injection, schedule: Q04DX002 (ip), vehicle: saline with Tween-80 90 % of control

CCOC(=O)C1(O)CC2(CCC(OCc3ccccc3)CC2)C(=O)O1 (stereo unspecified)
inactive: [5] 102 % of control | [6] 100 % of control | dose: 200.0 mg/kg/injection, schedule: Q01DX009 (ip), vehicle: saline 98 % of control

Nc1cc2c(c[n+](Cc3ccccc3)c3ccccc23)c2ccccc12
inactive: dose: 0.2 mg/kg/injection, schedule: Q04DX003 (ip), vehicle: water 105 % of control | dose: 0.39 mg/kg/injection, schedule: Q04DX003 (ip), vehicle: water 102 % of control | dose: 0.78 mg/kg/injection, schedule: Q04DX003 (ip), vehicle: water 102 % of control | dose: 1.56 mg/kg/injection, schedule: Q04DX003 (ip), vehicle: water 105 % of control

O=C1C(Cl)=C(Nc2cccc3cc4ccccc4nc23)C(=O)c2ccccc21
inactive: dose: 5.0 mg/kg/injection, schedule: Q01DX009 (ip), vehicle: saline 104 % of control and 112 % of control | dose: 10.0 mg/kg/injection, schedule: Q01DX009 (ip), vehicle: saline 113 % of control and 114 % of control | dose: 20.0 mg/kg/injection, schedule: Q01DX009 (ip), vehicle: saline 104 % of control

COc1cccc2c1C(=O)c1c(O)c3c(c(O)c1C2=O)C[C@@](O)(C(=O)CO)C[C@@H]3OC1CC(NCC#N)C(O)C(C)O1 (stereo partly specified)
inactive: dose: 32.0 mg/kg/injection, schedule: Q04DX003 (ip), vehicle: saline + Tween-80 + alcohol 108 % of control | dose: 32.0 mg/kg/injection, schedule: Q04DX003 (ip), vehicle: saline + alcohol 117 % of control
active: dose: 8.0 mg/kg/injection, schedule: Q04DX003 (ip), vehicle: saline + alcohol 153 % of control

O=C(NC1(OC(=O)c2ccc(Cl)cc2)CC1)c1ccc(Cl)cc1
inactive: dose: 60.0 mg/kg/injection, schedule: Q01DX005 (ip), vehicle: Klucel (hydroxypropylcellulose) (HPC) 103 % of control | dose: 120.0 mg/kg/injection, schedule: Q01DX005 (ip), vehicle: Klucel (hydroxypropylcellulose) (HPC) 104 % of control | dose: 240.0 mg/kg/injection, schedule: Q01DX005 (ip), vehicle: Klucel (hydroxypropylcellulose) (HPC) 89 % of control

Nc1nc(N)c(-c2ccc(Cl)cc2)c(COc2ccc(NC(=O)c3ccc(NC(=O)CCl)cc3)cc2)n1
inactive: dose: 25.0 mg/kg/injection, schedule: Q01DX001 (ip), vehicle: saline 104 % of control | dose: 50.0 mg/kg/injection, schedule: Q01DX001 (ip), vehicle: saline 107 % of control | dose: 100.0 mg/kg/injection, schedule: Q01DX001 (ip), vehicle: saline 114 % of control

CCOC(=O)C1CC(=O)c2ccc(OC)c(OC)c2C1 (stereo unspecified)
inactive: dose: 25.0 mg/kg/injection, schedule: Q01DX009 (ip), vehicle: other 103 % of control | dose: 50.0 mg/kg/injection, schedule: Q01DX009 (ip), vehicle: other 100 % of control | dose: 100.0 mg/kg/injection, schedule: Q01DX009 (ip), vehicle: other 94 % of control | dose: 200.0 mg/kg/injection, schedule: Q01DX009 (ip), vehicle: other 94 % of control | dose: 400.0 mg/kg/injection, schedule: Q01DX009 (ip), vehicle: other 98 % of control

COC(=O)c1cc2cnc1CSCc1cnc(c(C(=O)OC)c1)CSC2
inactive: [1] 96 % of control | [2] 96 % of control | [3] 96 % of control

O=S1(=O)CC2=C(C1)C1C=CC2C2C=CC12 (stereo unspecified)
inactive: dose: 25.0 mg/kg/injection, schedule: Q04DX003 (ip), vehicle: saline 98 % of control | dose: 50.0 mg/kg/injection, schedule: Q04DX003 (ip), vehicle: saline 101 % of control | [4] 107 % of control and 96 % of control

C=C=COC
inactive: [7] 93 % of control | dose: 120.0 mg/kg/injection, schedule: Q01DX005 (ip), vehicle: saline 95 % of control | dose: 240.0 mg/kg/injection, schedule: Q01DX005 (ip), vehicle: saline 95 % of control

N#CCCN(CCC#N)C(CCC(=O)O)C(=O)O (stereo unspecified)
inactive: dose: 50.0 mg/kg/injection, schedule: Q01DX005 (ip), vehicle: saline 93 % of control | dose: 100.0 mg/kg/injection, schedule: Q01DX005 (ip), vehicle: saline 100 % of control | dose: 200.0 mg/kg/injection, schedule: Q01DX005 (ip), vehicle: saline 101 % of control

CC(CN(C)C)C(=O)/C=C/c1ccc(F)cc1 (stereo unspecified)
inactive: dose: 30.0 mg/kg/injection, schedule: Q01DX005 (ip), vehicle: saline 100 % of control | [7] 101 % of control and 110 % of control

CN1COc2ccc3ccccc3c2C1
inactive: dose: 25.0 mg/kg/injection, schedule: Q01DX009 (ip), vehicle: saline 101 % of control | [5] 98 % of control | [6] 106 % of control
